One experiment concerns p65. The experiment in a line: Nuclear translocation of p65 in LPS-stimulated RAW264.7 cells (immunofluorescence). As to conditions: 640 μM SIN 1 h, then LPS. Type of experiment: cell-based, mouse. The procedure: RAW 264.7 cells were seeded on glass coverslip at a density 2.0×10^5 cells/well in 6-well plates and incubated for 24 h. Cells were pretreated with 640 μM SIN for 1 h and followed stimulated by LPS (100 ng/ml) for another 1 h. Rat primary peritoneal macrophages were grown on glass coverslip at a density 4.5×10^6 cells/well in 6-well plates and pretreated with 640 μM SIN for 1 h, and then challenged with LPS (1 μg/ml) for another 30 min (for NF-κB) or 2 h (for C/EBPβ). Cells were fixed with 4% paraformaldehyde for 30 min at room temperature and then blocked for 1 h with 5% BSA in PBS containing 0.1% Triton X-100. Then incubated with a primary antibodies for overnight and followed by Alexa Fluor 594-labeled goat anti-rabbit IgG. Cells were washed three times, and stained with DAPI for 30 min. After a wash step, cells were fixed on the slide and the images were acquired using a LeicaDM2500 fluorescent microscope (Leica Microsystems GmbH, Wet-zlar, Germany).

Experiment [1] has as its system COX-2. The experiment is described as follows: COX-2 protein expression in LPS-activated rat peritoneal macrophages (western blotting). Type of experiment: cell-based. The note with it: SIN or DEX 1 h, LPS 24 h. The procedure: (§1) Sprague-Dawley (SD) rats from the University of Hong Kong were housed in cages with free access to food and water. Peritoneal macrophages of SD rats were isolated as described in Liu J. et al., Pharmacological research 2016, 111:303-315. Briefly, untreated rats were sacrificed and after laparotomy, about 50 ml cold sterile Hank's balanced salt solution (HBSS) was used to lavage the peritoneal cavity at twice, and then the peritoneal lavage fluid was collected and centrifuged at 1500 rpm for 10 min. The cell pellets was suspended at a density 1.5×10^6 cells/ml in pre-hearted DMEM medium with 10% heat-inactivated FBS, penicillin G (100 units/ml), streptomycin ([…]), and L-glutamine (2 mM), followed by seeding in 6-well plates at a density of 4.5×10^6 cells and incubation for 2 h. Then the medium were discarded to remove the non-adherent cells. The adherent cells were further washed for two times with pre-heated DMEM medium to remove floating cells. Next, cells were pre-treated with various concentration of SIN for 1 h, followed by stimulation with LPS (1 μg/ml).
(§2) Whole-cell and nuclear proteins were obtained using RIPA lysis buffer (CST, Boston, Mass., USA) and Nuclear and Cytoplasmic Extraction Reagents kit from Thermo Scientific (Asheville, N.C., USA), respectively. […] The levels of protein expression were measured using Odyssey v3.0 software from Li-COR (Lincoln, Nebr., USA).
In general terms: Immunoblotting shows a protein as a band on a membrane.

Experiment [2] has as its system COX-2. The experiment is described as follows: COX-2 protein in microsomes of inflamed paw of carrageenan-induced rats (western blotting). Type of experiment: in vivo, SD rats. The note with it: SIN or DEX pretreatment i.p. The procedure: The model of carrageenan-induced paw edema was performed with SD rats (150-200 g). The carrageenan-induced paw edema was performed in SD rats (150-200 g) by subcutaneously injection λ-carrageenan as described in Liu J. et al., Pharmacological research 2016, 111 and Luo P. et al., J. Pharmacol. Exp. Ther. 2010. Briefly, rats were fasted for 12 h before experiment and intraperitoneal injection was performed with three different doses (25, 50 and 100 mg/kg) of SIN, or DEX (reference drug, 2 mg/kg) or 0.9% saline (Vehicle and Normal group rats), at 2 h prior to the induction of paw edema. […] Paw volumes (ml) of right hind foot of each rat were measured using a plethysmometer (type 7150; UGO Basile, Comerio, Italy) at 0 h (before carrageenan injection) and then again at 1, 2, 3 and 4 h after the injection of carrageenan or saline. The percentage of paw edema of the right hind paws of all groups were calculated at different time points by the following equation: […]
as §2

For another experiment, the system named is COX-1. The experiment in a line: COX-1 protein expression in LPS-activated rat peritoneal macrophages (western blotting). Type of experiment: cell-based. The note with it: SIN or DEX 1 h, LPS 24 h. The procedure:
as §1, §2

Regarding `COC1=C[C@@H]2[C@@H]3Cc4ccc(OC)c(O)c4[C@]2(CCN3C)CC1=O` [SIN, sinomenine], the “nuclear translocation of p65” value in the experiment with p65 is reported as “did not produce observable effects”. Also, the COX-2 protein expression entry in the experiment with COX-2 [1] was “did not suppress”. For the same molecule, the “COX-2 level in inflamed paw” value with COX-2 [2] is listed as “did not produce observable effects”. Further, in the experiment with COX-1, the COX-1 protein expression result is listed as “did not suppress”.

Source of the values: patent publication US20190070170A1, “METHOD OF S[…]-1” (Macau University of Science and Technology, priority 2017, published 2019).
